Experiments:
PR8-PB2-S324R = format: cell-based, influenza A virus
PR8-PB2-S324N = format: cell-based, influenza A virus
PR8-PB2-H357Q = format: cell-based, influenza A virus
PR8-PB2-F325V = format: cell-based, influenza A virus
PR8-Wild Type = test: microbe, parasite or virus in culture; format: cell-based, influenza A virus
PR8-PB2-M431I = format: cell-based, influenza A virus
PR8-PB2-F323L = format: cell-based, influenza A virus
[1] = tested on: A/Puerto Rico/8/34, A/California/07/2009, A/Wisconsin/67/2005 influenza virus variants; format: cell-based
PR8-PB2-K376Q = format: cell-based, influenza A virus
PR8-PB2-K376R = format: cell-based, influenza A virus

SMILES: CC(C)(C)[C@@H](CC(=O)O)Nc1nc(-c2c[nH]c3ncc(F)cc23)ncc1F [Compound 1]
- Sensitivity to Compound 1 Fold EC50 Shift (PR8-PB2-S324R): 33 fold
- Sensitivity to Compound 1 Fold EC50 Shift (PR8-PB2-S324N): 31 fold
- Sensitivity to Compound 1 Fold EC50 Shift (PR8-PB2-H357Q): 15 fold
- Sensitivity to Compound 1 Fold EC50 Shift (PR8-PB2-F325V): 3.5 fold
- Sensitivity to Compound 1 Fold EC50 Shift (PR8-Wild Type): 1.0 fold
- EC50 (PR8-Wild Type; Influenza A virus, PR8, MDCK, read-out: Sensitivity to Compound 1 EC50 (SD)): 1.3 nM
- Sensitivity to Compound 1 Fold EC50 Shift (PR8-PB2-M431I): 131 fold
- Sensitivity to Compound 1 Fold EC50 Shift (PR8-PB2-F323L): 8.5 fold
- reduction in sensitivity to Compound 1 [1]: > 10 fold
- shift in Compound 1 EC50 [1]: 10- to 1720 fold
- shifts in sensitivity to Compound 1 [1]: greater than 10 fold
- Sensitivity to Compound 1 Fold EC50 Shift (PR8-PB2-K376Q): 408 fold
- Sensitivity to Compound 1 Fold EC50 Shift (PR8-PB2-K376R): 231 fold
